The text below walks through data of patent US20200405604A1, “COSMETIC COMPOSITION COMPRISING 4-(3-ETHOXY-4-HYDROXYPHENYL)-2-BUTANONE” (L'OREAL, priority 2011, published 2020).

This series is described as follows: Solubility test in test solvents. The format is physicochemical. The procedure:
The test solvent was poured into a beaker, an amount of the compound 4-(3-ethoxy-4-hydroxyphenyl)-2-butanone was added with magnetic stirring and the mixture was left to stand for between 1 hour and 24 hours. The mixture was then heated to 50° C. and then cooled to room temperature (25° C.) over 24 hours. The system was then observed to see if the amount of compound introduced recrystallized or remained dissolved.
The amount of compound that can be dissolved in the test solvent was determined in this manner. The maximum value corresponds to the amount at and above which the ester compound stops dissolving in the evaluated solvent.

As for `CCOc1cc(CCC(C)=O)ccc1O` [4-(3-ethoxy-4-hydroxyphenyl)-2-butanone], the “Solubility (in words)” value (in water or glycerol) was “very sparingly soluble”. Besides, the “Dissolution (in words)” value is, setting by setting: (with ethanol, 1,2-propylene glycol, 1,3-propanediol, PEG-8 and propylene carbonate) “very satisfactorily dissolved”; (with glycerol) “very sparingly dissolved”.
